One molecule from publication PMC7477874, “Targeting L-Proline Uptake as New Strategy for Anti-chagas Drug Development” (Frontiers in Chemistry, 2020) can be followed below.

Values joined by “and” are separate entries in the source; they are usually repeats but may differ in a detail not shown here. Equal values may be shown once.

Data set [1] deals with L-proline transporter. Description: L-Proline transport competition assay in T. cruzi epimastigotes. It counts as cell-based, Trypanosoma cruzi. To be noted: 0.31 mM L-proline (Km), 3.1 mM analog, 30 s. The protocol: Parasites in exponential growth phase were washed three times by centrifugation and resuspended in phosphate buffered saline (PBS), pH 7.4. Cells were counted in a Neubauer chamber, adjusted with the same buffer to a final density of 200 × 10^6 cells/mL and distributed in aliquots of 100 μL (containing 20 × 10^6 cells each). Transport assays were initiated by the addition to the assay tubes of 100 μL of the desired dilution of L-proline in PBS in the presence of […] of L-[3H] proline. Unless otherwise specified, V0 was measured at 28 °C for 30 s by incorporation of 0.75 and 3 mM L-proline traced with 1 μCi of U-^14C-L-Pro (Perkin Elmer). In all cases, proline transport was stopped by addition of […] of cold 50 mM proline in PBS (pH 7.4), and rapid washing by centrifugation at 10,000x g for 2 min. Background values in each experiment were measured by simultaneous addition of radiolabeled L-proline and stop solution as previously described (Silber et al., [2002]). For the competition assays, the transport experiments were performed as described above using the L-Pro concentration corresponding to the Km (0.31 mM). Those conditions were chosen considering an inhibitory activity by structurally related compounds should be competitive, and so, should be evidenced by a change in the […] at L-Pro concentrations close to the Km. Non-competitive inhibitors, if any, should diminish Vmax, which is measured at 10 x Km L-Pro (3.1 mM) (Silber et al., [2002]). […] The analogs were assayed on T. cruzi epimastigotes incubated with proline at the transporter Km concentration (0.31 mM), and the analogs were assayed at concentration 10-fold higher (3.1 mM). […] The oleyl derivate (3k), with an unsaturated fatty tail, has a similar IC50 on T. cruzi epimastigotes compared to the cetyl analog (3j) showing no inhibition in terms of proline uptake (Table 2).  Figure 4 Proline uptake assay. Pro control = Proline control, Pro comp = L-Proline as competitor. 3i-k and 3n = proline level incubated (*p < 0.05) with selected analogs. Pro control (0.31 mM L-proline, [^3H] proline, PBS). Pro Comp (3.1 mM L-proline, [^3H] proline, PBS). Compounds 3i-k and 3n (0.31 mM L-proline, 3.1 mM analog 3x, [^3H] proline, PBS). Stop solution: 50 mM L-proline added after 30 s.

A short description of data set [2]: Solubility observed in the Vero cytotoxicity assay. It counts as physicochemical. As to conditions: at 50 μM, Vero cytotoxicity assay medium. The method, then: Vero cells are well established model to test cytotoxicity in vitro because it is an aneuploid and a continuous cell linage. […] Compound 3j was not soluble at 50 μM which made not possible to calculate its IC50.

Data set [3] relates to T. cruzi epimastigotes (CL strain clone 14). Briefly: Growth inhibition assay on T. cruzi epimastigotes. The format is cell-based, Trypanosoma cruzi. The method, then: T. cruzi CL strain clone 14 epimastigotes (Brener and […], [1965]) were maintained in the exponential growth phase by subculturing every 48 h in Liver Infusion Tryptose (LIT) medium supplemented with 10% FCS (Vitrocell, Campinas, São Paulo, Brazil) at 28 °C. T. cruzi epimastigotes in the exponential growth phase (5.0-6.0 x 10^7 cells mL^-1) were cultured in fresh LIT medium. The cells were treated with different concentrations of drugs or not treated (negative control). A combination of Rotenone (60 μM) and Antimycin (0.5 μM) was used as a positive control for inhibition as previously described. (Magdaleno et al., [2009]) The cells (2.5 x 10^6 mL^-1) were transferred to 96-well culture plates and incubated at 28 °C. Cell proliferation was quantified by reading the optical density (OD) at 620 nm for 8 days. The OD was converted to cell density values (cells per mL) using a linear regression equation previously obtained under the same conditions. The concentration of compounds that inhibited 50% of parasite proliferation (IC50) was determined during the exponential growth phase (4 days) by fitting the data to a typical sigmoidal dose-response curve using OriginPro8. The compounds were evaluated in quadruplicate in each experiment. The results shown here correspond to three independent experiments. As a cell growth inhibition control, growth curves in which […] were added to the culture medium were run in parallel for all experiments.

One may read the melting point as the temperature, or range, at which the solid turns liquid. For orientation: IC50 means the concentration that gives 50% inhibition. `CCCCCCCCCCCCCCCCn1cc(CN2CCC[C@H]2C(=O)OC)nn1` [Compound 3j, Methyl ((1-Hexadecyl-1H-1,2,3-Triazol-4-yl)Methyl)-L-Prolinate] returned a melting point of 60 to 60.9 °C. Moreover, in data set [1], the “% of Proline inh.” value is 20% and 18^# %. In addition, the Solubility result in data set [2] is recorded as “not soluble”. Moreover, the “Times more active than T4C” value in data set [3] (T. cruzi epimastigotes, IC50 relative to T4C (890 μM)) was determined as 36. In addition, the 50% inhibitory concentration (IC50) in data set [3] (Trypanosoma cruzi, epimastigotes, unit given as mM, read-out: T. cruzi epimastigotes IC50 (as restated in the discussion)) stood at 0.0245 mM.
